This is an account of results in PubChem BioAssay (NCI).

The structures appear in SMILES notation.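 Assay format: 96-well plates, 48-hour exposure. TGI denotes the concentration required for complete inhibition of growth.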 Bounds are passed on as bounds.

Some test systems named below: BT-549 breast; HOP-92 NSCLC; KM12 colon; NCI-H23 lung; NCI/ADR-RES ovarian; OVCAR-4 ovarian; SF-268 CNS; SK-MEL-28 melanoma; SN12C renal; UO-31 renal.
Holding throughout (experiment): NCI-60 cell line screen, 48 h

Regarding `CC(=O)Nc1ccc(N2C(=O)CS(=O)(=O)C2c2cccc(Oc3ccccc3)c2)cc1` (stereo not given), the TGI with BT-549 breast was found to be 32 µM; with HOP-92 NSCLC, 29.5 µM; in the test with KM12 colon, 47.2 µM; in the test on NCI-H23 lung, 43.5 µM; in the test on NCI/ADR-RES ovarian, 48.7 µM; with OVCAR-4 ovarian, 38.9 µM. Moreover, the TGI stood at 41.7 µM in the test with SF-268 CNS, 48.3 µM with SK-MEL-28 melanoma, 29.6 µM in the test with SN12C renal and 33.8 µM in the test with UO-31 renal.

For `Cc1c(C#N)c2nnn(-c3ccc([N+](=O)[O-])cc3)c(=O)n2c1-c1ccccc1`, the TGI with BT-549 breast worked out at 31.8 µM; with HOP-92 NSCLC, 31.4 µM; in the test on KM12 colon, 20.5 µM; with NCI-H23 lung, 18.5 µM; with NCI/ADR-RES ovarian, 65.5 µM; in the test with OVCAR-4 ovarian, 27.5 µM. Further, the TGI with SF-268 CNS stood at 32.4 µM; with SK-MEL-28 melanoma it was 79.7 µM; with SN12C renal, 24.9 µM; in the test on UO-31 renal, 25.5 µM.

Regarding `Cc1ccc(C(=O)Cc2nc3ncccc3[nH]c2=O)cc1`, the TGI was 92.5 µM in the test on BT-549 breast; 48.1 µM with HOP-92 NSCLC; over 100 µM with KM12 colon; 42.3 µM in the test on NCI-H23 lung; over 100 µM in the test with NCI/ADR-RES ovarian; 84 µM in the test on OVCAR-4 ovarian. Also, the TGI in the test on SF-268 CNS was 99.7 µM; with SK-MEL-28 melanoma, 87.4 µM; in the test with SN12C renal, over 100 µM; with UO-31 renal it was over 100 µM.

For `COc1cc(CCNC2=CC(=O)c3cccnc3C2=O)ccc1O`, the TGI turned out to be 2.75 µM in the test with BT-549 breast; 19 µM in the test with HOP-92 NSCLC; 13.2 µM in the test with KM12 colon; 4.65 µM with NCI-H23 lung; 11.5 µM with NCI/ADR-RES ovarian; 3.87 µM in the test with OVCAR-4 ovarian. Further, the TGI in the test with SF-268 CNS was found to be 7.7 µM; in the test with SK-MEL-28 melanoma, 2.56 µM; with SN12C renal it was 2.43 µM; with UO-31 renal, 2.83 µM.

For the compound `COc1ccc2c(c1)c(=O)c1c(NCCCN(C)CCCNc3ccc4c(=O)n(CCN(C)C)c(=O)n5c6ccc(OC)cc6c(=O)c3c45)ccc3c(=O)n(CCN(C)C)c(=O)n2c31`, the TGI was 2.12 µM with BT-549 breast; 0.941 µM with HOP-92 NSCLC; 1.11 µM in the test on KM12 colon; 0.704 µM with NCI-H23 lung; 2.26 µM in the test with NCI/ADR-RES ovarian; under 0.049 µM in the test on OVCAR-4 ovarian. The TGI in the test with SF-268 CNS is 1.88 µM; in the test on SK-MEL-28 melanoma, 2.32 µM; in the test with SN12C renal, 1.43 µM; with UO-31 renal, 1.01 µM.

Take `c1ccc2c(c1)nc1n2CCNC1`: the TGI with BT-549 breast, with HOP-92 NSCLC, with KM12 colon, in the test with NCI-H23 lung, in the test with NCI/ADR-RES ovarian and in the test with OVCAR-4 ovarian was over 100 µM each time. Besides, the TGI in the test with SF-268 CNS, in the test with SK-MEL-28 melanoma, in the test with SN12C renal and in the test on UO-31 renal was over 100 µM in each case.

With `O=C(Nc1ccccc1)c1cc(S(=O)(=O)Nc2n[nH]c(=O)[nH]2)c(SSc2cc(Cl)c(C(=O)Nc3ccccc3)cc2S(=O)(=O)Nc2n[nH]c(=O)[nH]2)cc1Cl`, the TGI in the test with BT-549 breast, in the test on HOP-92 NSCLC, in the test on KM12 colon, with NCI-H23 lung, with NCI/ADR-RES ovarian and with OVCAR-4 ovarian was over 100 µM each time. For the same compound, the TGI in the test with SF-268 CNS, with SK-MEL-28 melanoma, in the test on SN12C renal and in the test on UO-31 renal was over 100 µM throughout.

As for `COc1ccc(C2c3cc4c(cc3OC(NNC(N)=O)C2C)OCO4)cc1` (stereo not given), the TGI in the test with BT-549 breast was over 95.7 µM; in the test on HOP-92 NSCLC, 78.7 µM; in the test with KM12 colon, over 100 µM; in the test on NCI-H23 lung, over 86.1 µM; in the test with NCI/ADR-RES ovarian, over 100 µM; with OVCAR-4 ovarian, over 100 µM. For the same compound, the TGI in the test on SF-268 CNS was over 100 µM; in the test with SK-MEL-28 melanoma, over 100 µM; in the test with SN12C renal, over 100 µM; with UO-31 renal it was over 90.5 µM.

Take `CC(C)=CCC/C(=C\CC/C(=C\CCc1ccoc1)C(=O)O)C(=O)O`: the TGI with BT-549 breast, in the test on HOP-92 NSCLC, in the test with KM12 colon, with NCI-H23 lung, with NCI/ADR-RES ovarian and with OVCAR-4 ovarian was over 100 µM in each case. Moreover, the TGI with SF-268 CNS, with SK-MEL-28 melanoma, in the test on SN12C renal and in the test on UO-31 renal was over 100 µM each time.

For `COc1ccc(/C=C2\Sc3nnc(C)n3N=C2c2cc(F)c(Cl)cc2Cl)cc1OC`, the TGI is 34.1 µM with BT-549 breast; 28.6 µM in the test on HOP-92 NSCLC; 33.1 µM in the test with KM12 colon; 26.7 µM in the test with NCI-H23 lung; 35.6 µM with NCI/ADR-RES ovarian; 28.8 µM in the test with OVCAR-4 ovarian. Also, the TGI in the test with SF-268 CNS stood at 50.9 µM; with SK-MEL-28 melanoma, 49.2 µM; in the test with SN12C renal, 34.5 µM; in the test with UO-31 renal it was 22.6 µM.

Consider `COC(=O)c1c(O)ccc2c1c1c(n2Cc2ccc(OC)cc2)C(=O)c2ccccc2C1=O`, for which the TGI was 3.06 µM with BT-549 breast; 25.3 µM with HOP-92 NSCLC; 45.3 µM in the test on KM12 colon; 32.2 µM in the test on NCI-H23 lung; 37.2 µM with NCI/ADR-RES ovarian; 35.2 µM in the test on OVCAR-4 ovarian. For the same compound, the TGI amounted to 55 µM in the test with SF-268 CNS, 37.4 µM in the test with SK-MEL-28 melanoma, 7.35 µM with SN12C renal and 29.2 µM with UO-31 renal.

In the case of `CCC(C)NC(=S)N/N=C(\C)c1ccccn1` (stereo not given), the TGI is over 100 µM with BT-549 breast; 0.668 µM in the test with HOP-92 NSCLC; over 100 µM in the test on KM12 colon; over 100 µM in the test on NCI-H23 lung; 7.94 µM in the test with NCI/ADR-RES ovarian; over 100 µM in the test on OVCAR-4 ovarian. Moreover, the TGI was over 100 µM in the test on SF-268 CNS, over 100 µM in the test on SK-MEL-28 melanoma, over 100 µM with SN12C renal and 16.8 µM with UO-31 renal.
